What was measured:
[1] = target: T1, AhR (Mus musculus, UniProt P30561); test: DNA binding of in vitro translated AhR and ARNT in RRL; assay type: biochemical
T1 construct: made in house; host or cells: TNT rabbit reticulocyte lysate
T1 sequence (P30561 10-805 limits assumed): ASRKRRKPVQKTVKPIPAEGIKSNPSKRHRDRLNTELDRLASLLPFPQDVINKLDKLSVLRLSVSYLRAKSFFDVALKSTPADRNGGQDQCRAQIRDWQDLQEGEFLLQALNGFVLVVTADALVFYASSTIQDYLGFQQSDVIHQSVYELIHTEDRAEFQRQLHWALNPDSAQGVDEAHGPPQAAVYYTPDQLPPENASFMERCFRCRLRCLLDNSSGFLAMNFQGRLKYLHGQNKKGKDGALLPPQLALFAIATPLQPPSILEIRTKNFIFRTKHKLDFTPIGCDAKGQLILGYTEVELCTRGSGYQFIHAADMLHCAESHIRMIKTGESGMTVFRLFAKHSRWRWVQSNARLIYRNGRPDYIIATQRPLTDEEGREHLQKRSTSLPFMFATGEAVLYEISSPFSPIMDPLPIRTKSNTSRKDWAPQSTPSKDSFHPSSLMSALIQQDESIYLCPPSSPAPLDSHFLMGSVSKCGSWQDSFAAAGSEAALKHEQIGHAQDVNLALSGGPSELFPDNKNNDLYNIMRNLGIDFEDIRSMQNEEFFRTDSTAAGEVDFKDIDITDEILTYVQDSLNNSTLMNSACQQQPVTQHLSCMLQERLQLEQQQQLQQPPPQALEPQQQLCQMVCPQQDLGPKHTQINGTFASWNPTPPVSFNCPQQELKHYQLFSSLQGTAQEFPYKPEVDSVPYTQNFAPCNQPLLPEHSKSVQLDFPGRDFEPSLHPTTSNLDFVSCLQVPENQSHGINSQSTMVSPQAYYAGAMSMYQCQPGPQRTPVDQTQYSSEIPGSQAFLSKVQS
Source text: The data provided above implicate a model where EGCG inhibits release of hsp90 from the AhR complex. This form of hsp90 appears to maintain its interaction with XAP2 (FIG. 4). However, from the above data, it remains to be determined whether 1) the hsp90-XAP2 complex remains bound to the AhR upon EGCG treatment, 2) EGCG prevents ARNT dimerization, 3) EGCG stabilizes the receptor in a different complex upon additional treatment with TCDD, and 4) if other proteins are present in this complex. Findings from the above investigations add some useful insight into the mechanism of action of EGCG. The mouse AhR used for these studies was in vitro transcribed in rabbit reticulocyte lysate (RRL) and immunoprecipitated using an antibody specific for amino acids 12-31. Although this antibody could precipitate the latent and TCDD-activated AhR complex from RRL, it was incapable of precipitating an EGCG-treated AhR. […] Furthermore, titration of Hepa cytosol into the RRL system restored the ability to immunoprecipitate ^35S-methionine-labeled in vitro transcribed AhR. Similar discrepancies between systems were observed utilizing DNA binding as an endpoint. […] This is in direct contrast to the lack of AhR transformation by EGCG observed in Hepa cytosol (FIG. 7). […] This EGCG-induced DNA binding complex could also be attenuated upon titration of Hepa cytosol into RRL. […]

[2] = test system: TCDD-mediated CYP1A1 gene induction; test: CYP1A1 expression by Western blot in Hepa1c1c7 cells; assay type: cell-based, mouse
Procedure: Mouse hepatoma cells, Hepa1c1c7 (Hepa), and BP^rCl cells were maintained in modified Eagle's medium (Sigma) supplemented with 10% heat-inactivated fetal bovine serum, sodium pyruvate, L-glutamine, sodium bicarbonate, and Gentamicin (MEM+), at 37° C. in a humid atmosphere with 5% CO2. BP^rCl cells are a derivative of Hepa1c1c7 cells that lack ARNT protein expression and function (Probst et al., Mol. Pharmacol. 44:511-518 (1993), which is hereby incorporated by reference in its entirety). Upon reaching 90% confluency, cells were harvested and homogenized in HEDG buffer (25 mM HEPES, 1.5 mM Na2EDTA, 1 mM dithiothreitol, 10% (v/v) glycerol, pH 7.6) containing protease inhibitors (Roche Applied Science complete mini cocktail tablet, Indianapolis, Ind.). Both Hepa and BP^rC1 cytosols were prepared by centrifugation of the homogenate at 100,000 g for 45 min.
Hepa cells were plated onto 6-well plates at a density of 5×10^5 cells/well and incubated overnight at 37° C. Cells were treated with vehicle (DMSO), TCDD (150 pM), EGCG, or EGCG in the presence of TCDD (150 pM) for 4 hrs. Cells were lysed (0.2% Triton, 5 mM EDTA in PBS) and total protein quantified using the Coomassie Plus Protein Assay Reagent (Pierce, Rockford, Ill.). Protein (30 μg) was separated by SDS-PAGE (7.5% acrylamide resolving gel) and transferred to PVDF membrane (Millipore, Bedford, Mass.). […]

O=C(O[C@@H]1Cc2c(O)cc(O)cc2O[C@@H]1c1cc(O)c(O)c(O)c1)c1cc(O)c(O)c(O)c1 [EGCG, epigallocatechin gallate]
DNA binding of AhR and ARNT, treatment alone [1]: formation of a strong DRE-AhR-ARNT shifted complex
CYP1A1 gene induction, treatment alone ([2]; EGCG alone, Western blot): no effect on CYP1A1 gene induction
inhibition of TCDD-mediated CYP1A1 gene induction ([2]; simultaneously with 150 pM TCDD): concentration-dependent inhibition
